US10441744B2, “Flushable catheter affixed to a wash line activated by a microfluidic pressure switch” (priority 2013, dated 2019)

Tested on: cells attached to plastic surface
Assay: detachment and removal of cells from plastic surface by cleaning solutions
Format: cell-based
Method: The first step with solution A: Solution A contains proteases. Proteases can be used to digest proteins attached to plastic surface. For example, trypsin can be used to release a cell layer from plastic dishes. An application of trypsin (pre-warmed at 37° C.) can lead the single cell layer to detach from the plastic bottom in a few minutes. When incubated at 30° C. (may be similar to the temperature of the part of catheters out of body), trypsin may detach heavy, multilayer cells from plastic surface in 30 min. Biofilm often contains multi-layers of cells can be digested and detach the layers of cells from plastic surface 30 min after trypsin incubation at 37° C.
The second step with solution B: While most of the cells may be detached by protease treatment (such as trypsin), a few cells may remain on the plastic surface, particularly when the incubation temperature is not at optimal digestive temperature (such as 37° C. for trypsin) as may happen for the part of catheters out of patients. Solution B may be used to continue the treatment for two purposes. Solution B contains high ion concentration that may reduce attachment of cell to plastic surface at room temperature. High ion concentration such as addition of 0.45M NaCl may also further reduce proteins binding to the surface (Ouyang et al., 1997). The second purpose is to deactivate remaining trypsin as a buffer without calcium and magnesium. […] Although it is not necessary to understand the mechanism of action of the current invention, it is believed that a higher concentration of saline solution (0.45M NaCl or above), similar to elution buffer for ion chromatography, helps to clean cells and/or proteins still attached to plastic due to charge of the ions.
The third step with solution C: After most of the bacterial and cells detach from plastic and wash away, 70% ethanol may be applied to kill possible bacterial remains and/or denature proteins still attached on the plastic surface. […]

## trypsin
Incubated at 30° C.
  time to detach heavy, multilayer cells from plastic surface: 30 min
Trypsin incubation at 37° C.
  time to digest and detach layers of cells (biofilm multi-layers) from plastic surface: 30 min
Trypsin pre-warmed at 37° C.
  time for single cell layer to detach from the plastic bottom: a few minutes
